The values that follow come from patent EP4169506B1, “PALMITOYLETHANOLAMIDE-BASED COMPOSITION IN THE FORM OF POWDERS WITH HIGH ENTERIC BIOACCESSIBILITY” (Geofarma S.r.l., priority 2021, dated 2023).

This series is described as follows: Dispersion in tap water, then in simulated gastric and enteric liquid (GSF, FaSSIF V2). In kind it is physicochemical. The conditions noted are these: 500 mg in 100 ml tap water, then GSF and FaSSIF V2, 37°C, 250 rpm, magnetic stirring (Figure 10). The text has this:
• Figure 1. Representative image of the in vitro model of intestinal epithelium, with the Caco-2 cell monolayer grown on a Transwell® insert. • Figure 2. (A) Electron micrograph of enterocytes forming the Caco-2 monolayer with the microvilli and occluding junctions highlighted; (B) Confocal microscopy images highlighting the occluding junctions (red) and cell nuclei (blue). • Figure 3. Dimensional distribution of PEAMag®, normast® MPS microgranules and PEA of the invention measured by DLS at the end of the digestive process in vitro. • Figure 4. Bioaccessibility (A) and excreted fraction (B) of the PEA present in the three formulations, following exposure to the digestive process (* p<0.05). • Figure 5. Cell viability of intestinal epithelia exposed to digestive fluids in the absence of the formulations (0%) and increasing concentrations of PEAMag® (A), normast® MPS microgranules (B) and PEA of the invention (C) for 3 h (*cell viability < 70%). • Figure 6. TEER of intestinal epithelia exposed to digestive fluids in the absence of the formulations (0%) and increasing concentrations of PEAMag® (A), normast® MPS microgranules (B) and PEA of the invention (C) for 3 h. • Figure 7. […]

Each structure is given as a SMILES string.

Consider `CCCCCCCCCCCCCCCC(=O)NCCO` [PEA, Palmitoylethanolamide], for which the dispersion behaviour entry was “emergence of the PEA on the surface of the liquid”.
